ChEMBL document CHEMBL4825673, “Total and Semisyntheses of Polymyxin Analogues with 2-Thr or 10-Thr Modifications to Decipher the Structure-Activity Relationship and Improve the Antibacterial Activity” (J Med Chem, 2021)
≈ marks a conversion by molar mass, not a printed value. Starred links: 1 amine or outer side, 2 acyl side, 3 side chain; linkers in the order of their positions; H or OH if unused. Positions of bridges follow the written chain, without caps; N, C: chain ends. Non-standard residues stand in square brackets, D forms with d. Residues, ends and D or L forms follow the SMILES beside them. *: point of attachment. Benzoyl(4-OPh) = O=C(c1ccc(Oc2ccccc2)cc1)*; Heptanoyl(6-Me) = CC(C)CCCCC(=O)*; NH(2-ClPh) = Clc1ccccc1N*; X1 = CC[C@H](C)CCCCC(=O)*; Dab = NCC[C@H](N)C(=O)O; CO = O=C([*:1])[*:2]

Experiments:
Type in all cases: functional
Details in all cases: read-out: MIC100
Pseudomonas aeruginosa [1] = test: Antibacterial activity against Pseudomonas aeruginosa PAO1 assessed as inhibition of bacterial growth incubated for 24 hrs by broth microdilution method
Escherichia coli = test: Antibacterial activity against Escherichia coli assessed as inhibition of bacterial growth incubated for 24 hrs by broth microdilution method
Klebsiella pneumoniae = test: Antibacterial activity against Klebsiella pneumoniae assessed as inhibition of bacterial growth incubated for 24 hrs by broth microdilution method
Acinetobacter baumannii = test: Antibacterial activity against Acinetobacter baumannii assessed as inhibition of bacterial growth incubated for 24 hrs by broth microdilution method
Pseudomonas aeruginosa [2] = test: Antibacterial activity against Pseudomonas aeruginosa assessed as inhibition of bacterial growth incubated for 24 hrs by broth microdilution method
Moraxella catarrhalis = test: Antibacterial activity against Moraxella catarrhalis assessed as inhibition of bacterial growth incubated for 24 hrs by broth microdilution method

| Structure (SMILES) | MIC (Pseudomonas aeruginosa [1]) | further results |
| --- | --- | --- |
| CCCCCCCC(=O)N[C@@H](CCN)C(=O)N[C@@H](CCSC)C(=O)N[C@@H](CCN)C(=O)N[C@H]1CCNC(=O)[C@H]([C@@H](C)O)NC(=O)[C@H](CCN)NC(=O)[C@H](CCN)NC(=O)[C@H](CC(C)C)NC(=O)[C@@H](Cc2ccccc2)NC(=O)[C@H](CCN)NC1=O | 2 µg/mL (≈ 1.64 µM) | MIC (Escherichia coli): 4 µg/mL (≈ 3.28 µM); MIC (Klebsiella pneumoniae): > 64 µg/mL; MIC (Acinetobacter baumannii): 2 µg/mL (≈ 1.64 µM); MIC (Pseudomonas aeruginosa [2]): 0.125 µg/mL (≈ 0.102 µM); MIC (Moraxella catarrhalis): 8 µg/mL (≈ 6.56 µM) |
| CC(C)CCCCC(=O)N[C@@H](CCN)C(=O)N[C@H](C(=O)N[C@@H](CCN)C(=O)N[C@H]1CCNC(=O)[C@H]([C@@H](C)O)NC(=O)[C@H](CCN)NC(=O)[C@H](CCN)NC(=O)[C@H](CC(C)C)NC(=O)[C@@H](Cc2ccccc2)NC(=O)[C@H](CCN)NC1=O)[C@@H](C)OC(=O)[C@@H](N)CC(N)=O | 1 µg/mL (≈ 0.767 µM) | – |
| CC(C)CCCCC(=O)N[C@@H](CCN)C(=O)N[C@H](C(=O)N[C@@H](CCN)C(=O)N[C@H]1CCNC(=O)[C@H]([C@@H](C)O)NC(=O)[C@H](CCN)NC(=O)[C@H](CCN)NC(=O)[C@H](CC(C)C)NC(=O)[C@@H](Cc2ccccc2)NC(=O)[C@H](CCN)NC1=O)C(C)C | 4 µg/mL (≈ 3.37 µM) | MIC (Escherichia coli): 8 µg/mL (≈ 6.74 µM); MIC (Klebsiella pneumoniae): > 16 µg/mL; MIC (Acinetobacter baumannii): 16 µg/mL (≈ 13.5 µM); MIC (Pseudomonas aeruginosa [2]): 0.5 µg/mL (≈ 0.421 µM); MIC (Moraxella catarrhalis): 8 µg/mL (≈ 6.74 µM) |
| CC[C@H](C)CCCCC(=O)N[C@@H](CCN)C(=O)N[C@H](C(=O)N[C@@H](CCN)C(=O)N[C@H]1CCNC(=O)[C@H]([C@@H](C)O)NC(=O)[C@H](CCN)NC(=O)[C@H](CCN)NC(=O)[C@H](CC(C)C)NC(=O)[C@@H](Cc2ccccc2)NC(=O)[C@H](CCN)NC1=O)[C@@H](C)OC(=O)[C@@H](N)[C@@H](C)CC | 2 µg/mL (≈ 1.52 µM) | – |
| CC[C@H](C)CCCCC(=O)N[C@@H](CCN)C(=O)N[C@H](C(=O)N[C@@H](CCN)C(=O)N[C@H]1CCNC(=O)[C@H]([C@@H](C)O)NC(=O)[C@H](CCN)NC(=O)[C@H](CCN)NC(=O)[C@H](CC(C)C)NC(=O)[C@@H](Cc2ccccc2)NC(=O)[C@H](CCN)NC1=O)[C@@H](C)OC(=O)[C@@H](N)[C@@H](C)O | 2 µg/mL (≈ 1.53 µM) | – |
| CC[C@H](C)[C@H](N)C(=O)O[C@H](C)[C@H](NC(=O)[C@H](CCN)NC(=O)CCCCC(C)C)C(=O)N[C@@H](CCN)C(=O)N[C@H]1CCNC(=O)[C@H]([C@@H](C)O)NC(=O)[C@H](CCN)NC(=O)[C@H](CCN)NC(=O)[C@H](CC(C)C)NC(=O)[C@@H](Cc2ccccc2)NC(=O)[C@H](CCN)NC1=O | 2 µg/mL (≈ 1.54 µM) | – |
| CC[C@H](C)CCCCC(=O)N[C@@H](CCN)C(=O)N[C@H](C(=O)N[C@@H](CCN)C(=O)N[C@H]1CCNC(=O)[C@H]([C@@H](C)O)NC(=O)[C@H](CCN)NC(=O)[C@H](CCN)NC(=O)[C@H](CC(C)C)NC(=O)[C@@H](Cc2ccccc2)NC(=O)[C@H](CCN)NC1=O)[C@@H](C)OC(=O)[C@@H](N)CS | 2 µg/mL (≈ 1.53 µM) | – |
| CC[C@H](C)CCCCC(=O)N[C@@H](CCN)C(=O)N[C@H](C(=O)N[C@@H](CCN)C(=O)N[C@H]1CCNC(=O)[C@H]([C@@H](C)O)NC(=O)[C@H](CCN)NC(=O)[C@H](CCN)NC(=O)[C@H](CC(C)C)NC(=O)[C@@H](Cc2ccccc2)NC(=O)[C@H](CCN)NC1=O)[C@@H](C)OC(=O)[C@@H](N)CCSC | 2 µg/mL (≈ 1.5 µM) | – |
| CC(C)CCCCC(=O)N[C@@H](CCN)C(=O)N[C@H](C(=O)N[C@@H](CCN)C(=O)N[C@H]1CCNC(=O)[C@H]([C@@H](C)O)NC(=O)[C@H](CCN)NC(=O)[C@H](CCN)NC(=O)[C@H](CC(C)C)NC(=O)[C@@H](Cc2ccccc2)NC(=O)[C@H](CCN)NC1=O)[C@H](C)OC(=O)[C@@H](N)CCC(=O)O | 2 µg/mL (≈ 1.52 µM) | – |
| CC[C@H](C)CCCCC(=O)N[C@@H](CCN)C(=O)N[C@H](C(=O)N[C@@H](CCN)C(=O)N[C@H]1CCNC(=O)[C@H]([C@@H](C)O)NC(=O)[C@H](CCN)NC(=O)[C@H](CCN)NC(=O)[C@H](CC(C)C)NC(=O)[C@@H](Cc2ccccc2)NC(=O)[C@H](CCN)NC1=O)[C@@H](C)OC(=O)[C@@H](N)CCCNC(=N)N | 2 µg/mL (≈ 1.47 µM) | – |
| CC(C)CCCCC(=O)N[C@@H](CCN)C(=O)N[C@H](C(=O)N[C@@H](CCN)C(=O)N[C@H]1CCNC(=O)[C@H]([C@@H](C)O)NC(=O)[C@H](CCN)NC(=O)[C@H](CCN)NC(=O)[C@H](CC(C)C)NC(=O)[C@@H](Cc2ccccc2)NC(=O)[C@H](CCN)NC1=O)[C@@H](C)OC(=O)[C@@H](N)[C@@H](C)O | 2 µg/mL (≈ 1.55 µM) | – |
| CC[C@H](C)CCCCC(=O)N[C@@H](CCN)C(=O)N[C@H](C(=O)N[C@@H](CCN)C(=O)N[C@H]1CCNC(=O)[C@H]([C@@H](C)O)NC(=O)[C@H](CCN)NC(=O)[C@H](CCN)NC(=O)[C@H](CC(C)C)NC(=O)[C@@H](Cc2ccccc2)NC(=O)[C@H](CCN)NC1=O)[C@@H](C)OC(=O)[C@@H](N)CCCCN | 2 µg/mL (≈ 1.5 µM) | – |
| CC[C@H](C)CCCCC(=O)N[C@@H](CCN)C(=O)N[C@H](C(=O)N[C@@H](CCN)C(=O)N[C@H]1CCNC(=O)[C@H]([C@@H](C)O)NC(=O)[C@H](CCN)NC(=O)[C@H](CCN)NC(=O)[C@H](CC(C)C)NC(=O)[C@@H](Cc2ccccc2)NC(=O)[C@H](CCN)NC1=O)[C@@H](C)OC(=O)[C@@H](N)CC(N)=O | 2 µg/mL (≈ 1.52 µM) | – |
| CC[C@H](C)CCCCC(=O)N[C@@H](CCN)C(=O)N[C@H](C(=O)N[C@@H](CCN)C(=O)N[C@H]1CCNC(=O)[C@H]([C@@H](C)O)NC(=O)[C@H](CCN)NC(=O)[C@H](CCN)NC(=O)[C@H](CC(C)C)NC(=O)[C@@H](Cc2ccccc2)NC(=O)[C@H](CCN)NC1=O)[C@@H](C)OC(=O)[C@@H]1CCCN1 | 2 µg/mL (≈ 1.54 µM) | – |
| CC(C)CCCCC(=O)N[C@@H](CCN)C(=O)N[C@H](C(=O)N[C@@H](CCN)C(=O)N[C@H]1CCNC(=O)[C@H]([C@@H](C)O)NC(=O)[C@H](CCN)NC(=O)[C@H](CCN)NC(=O)[C@H](CC(C)C)NC(=O)[C@@H](Cc2ccccc2)NC(=O)[C@H](CCN)NC1=O)[C@@H](C)OC(=O)[C@@H](N)CC(=O)O | 2 µg/mL (≈ 1.53 µM) | – |
| CC[C@H](C)CCCCC(=O)N[C@@H](CCN)C(=O)N[C@H](C(=O)N[C@@H](CCN)C(=O)N[C@H]1CCNC(=O)[C@H]([C@@H](C)O)NC(=O)[C@H](CCN)NC(=O)[C@H](CCN)NC(=O)[C@H](CC(C)C)NC(=O)[C@@H](Cc2ccccc2)NC(=O)[C@H](CCN)NC1=O)[C@@H](C)OC(=O)[C@@H](N)CCC(=O)O | 1 µg/mL (≈ 0.75 µM) | – |
| CC[C@H](C)CCCCC(=O)N[C@@H](CCN)C(=O)N[C@H](C(=O)N[C@@H](CCN)C(=O)N[C@H]1CCNC(=O)[C@H]([C@@H](C)O)NC(=O)[C@H](CCN)NC(=O)[C@H](CCN)NC(=O)[C@H](CC(C)C)NC(=O)[C@@H](Cc2ccccc2)NC(=O)[C@H](CCN)NC1=O)[C@@H](C)OC(=O)[C@@H](N)Cc1c[nH]cn1 | 2 µg/mL (≈ 1.49 µM) | – |
| CC[C@H](C)CCCCC(=O)N[C@@H](CCN)C(=O)N[C@H](C(=O)N[C@@H](CCN)C(=O)N[C@H]1CCNC(=O)[C@H]([C@@H](C)O)NC(=O)[C@H](CCN)NC(=O)[C@H](CCN)NC(=O)[C@H](CC(C)C)NC(=O)[C@@H](Cc2ccccc2)NC(=O)[C@H](CCN)NC1=O)[C@@H](C)OC(=O)[C@@H](N)CO | 1 µg/mL (≈ 0.775 µM) | – |
| CC[C@H](C)CCCCC(=O)N[C@@H](CCN)C(=O)N[C@H](C(=O)N[C@@H](CCN)C(=O)N[C@H]1CCNC(=O)[C@H]([C@@H](C)O)NC(=O)[C@H](CCN)NC(=O)[C@H](CCN)NC(=O)[C@H](CC(C)C)NC(=O)[C@@H](Cc2ccccc2)NC(=O)[C@H](CCN)NC1=O)[C@@H](C)OC(=O)[C@@H](N)Cc1c[nH]c2ccccc12 | 2 µg/mL (≈ 1.44 µM) | – |
| CC(C)C[C@@H]1NC(=O)[C@@H](Cc2ccccc2)NC(=O)[C@H](CCN)NC(=O)[C@@H](NC(=O)[C@H](CCN)NC(=O)[C@@H](NC(=O)[C@H](CCN)NC(=O)CCCCCCCN)[C@@H](C)O)CCNC(=O)[C@H]([C@@H](C)O)NC(=O)[C@H](CCN)NC(=O)[C@H](CCN)NC1=O | 1 µg/mL (≈ 0.83 µM) | MIC (Escherichia coli): 8 µg/mL (≈ 6.64 µM); MIC (Klebsiella pneumoniae): > 32 µg/mL; MIC (Acinetobacter baumannii): 2 µg/mL (≈ 1.66 µM); MIC (Pseudomonas aeruginosa [2]): 0.125 µg/mL (≈ 0.104 µM); MIC (Moraxella catarrhalis): > 32 µg/mL |
| CC[C@H](C)CCCCC(=O)N[C@@H](CCN)C(=O)N[C@H](C(=O)N[C@@H](CCN)C(=O)N[C@H]1CCNC(=O)[C@H]([C@@H](C)O)NC(=O)[C@H](CCN)NC(=O)[C@H](CCN)NC(=O)[C@H](CC(C)C)NC(=O)[C@@H](Cc2ccccc2)NC(=O)[C@H](CCN)NC1=O)[C@@H](C)O (X1-[Dab]T[Dab][Dab][Dab][dF]L[Dab][Dab]T; lactam 4-C) | 2 µg/mL (≈ 1.66 µM) | – |
| CC(C)C[C@@H]1NC(=O)[C@@H](Cc2ccccc2)NC(=O)[C@H](CCN)NC(=O)[C@@H](NC(=O)[C@H](CCN)NC(=O)[C@@H](NC(=O)[C@H](CCN)NC(=O)c2ccc(Oc3ccccc3)cc2)[C@@H](C)O)CCNC(=O)[C@H]([C@@H](C)O)NC(=O)[C@H](CCN)NC(=O)[C@H](CCN)NC1=O ({Benzoyl(4-OPh)}-[Dab]T[Dab][Dab][Dab][dF]L[Dab][Dab]T; lactam 4-C) | 4 µg/mL (≈ 3.18 µM) | – |
| CC(C)C[C@@H]1NC(=O)[C@@H](Cc2ccccc2)NC(=O)[C@H](CCN)NC(=O)[C@@H](NC(=O)[C@H](CCN)NC(=O)[C@@H](NC(=O)[C@H](CCN)NC(=O)Nc2ccccc2Cl)[C@@H](C)O)CCNC(=O)[C@H]([C@@H](C)O)NC(=O)[C@H](CCN)NC(=O)[C@H](CCN)NC1=O ({NH(2-ClPh)-CO}-[Dab]T[Dab][Dab][Dab][dF]L[Dab][Dab]T; lactam 4-C) | 4 µg/mL (≈ 3.29 µM) | – |
| CC(C)CCCCC(=O)N[C@@H](CCN)C(=O)N[C@H](C(=O)N[C@@H](CCN)C(=O)N[C@H]1CCNC(=O)[C@H]([C@@H](C)O)NC(=O)[C@H](CCN)NC(=O)[C@H](CCN)NC(=O)[C@H](CC(C)C)NC(=O)[C@@H](Cc2ccccc2)NC(=O)[C@H](CCN)NC1=O)[C@@H](C)O [POLYMYXIN B2] ({Heptanoyl(6-Me)}-[Dab]T[Dab][Dab][Dab][dF]L[Dab][Dab]T; lactam 4-C) | 1 µg/mL (≈ 0.841 µM) | – |
